Measured values taken from patent publication US7067533B2, “Aminophenoxyacetamide derivatives and pharmaceutical composition containing thereof” (Daiichi Asubio Pharma Co., Ltd., priority 2000, dated 2006).

Key:
[1] = system: primary cultures (neurons) from cerebral cortices of fetal Wistar rats; experiment: Biological Test 1: neuroprotective effect against glutamate induced neuronal cell death (MTT); type: cell-based, rat; settings: Compound: 1 μM; glutamate 1 mM; control group = 100%
Method: Cultures were maintained at 37 C. in a 90% air/10% CO2 humidified incubator. Glutamate was added to the culture at day 4 to the final concentration of 1 mM. […] MTT was dissolved in phosphate buffered saline (PBS, pH 7.4) at 5 mg/ml and filtered to sterilize and remove a small amount of insoluble residue present in some batches of MTT, and added to the cultures at a final concentration of 0.5 mg/ml.
The test compounds (1 μM) was added 24 hrs prior to glutamate treatment and simultaneously with glutamate.
Survival rate of living cells (%) =[(test compound group—glutamic acid treated group)÷(control group—glutamic acid treated group)]×100

[2] = system: primary cultures (neurons) from cerebral cortices of fetal Wistar rats; experiment: Biological Test 2: antagonism of the neuroprotective effect by MTA treatment (MTT); type: cell-based, rat; settings: 0.75 mM MTA added 30 minutes before test compound, glutamate
Method: This biological test is performed to determine whether the neuroprotective effect of the test compounds is due to the activation of receptors of physiological active substances or not, by using antagonistic test for neutralizing antibody and Inhibitor for FGF, NT-3, NT-4/5, BDNF, IGF-I/II, NGF, PDGF and estrogen, respectively.
Chem., 268, 4244 (1993)]. Therefore, the neuroprotective effect of the test compounds is inhibited by treatment of MTA, this effect is depended by the signal transfer effect through the phosphorylation of FGF receptor.
The inhibitors of the various kinds of receptor were dissolved in the optimum concentration, and MTA was dissolved in the concentration of 7.5 mM, just before the using. 30 minutes before the treatment of the test compounds, the optimum concentration of each inhibitors or 0.75 mM of MTA was added, and the neuroprotective effect of the test compounds was determined by mean of MTT method.

[3] = system: cerebral edema (water content of cerebral hemisphere), Wistar rats; experiment: Biological Test 5: cerebral edema suppressing effect; type: in vivo; settings: iv, 144 h, rat, post-TBI day 6, read-out: Cerebral edema suppressing rate (%); for inhibition in vivo at 1 mg/kg: 1 mg/kg intravenously just after the operation; for inhibition in vivo at 3 mg/kg: 3 mg/kg intravenously just after the operation
Method: Adult male Wistar rats weighing 210–230 g were used in the present study and housed in an artificially controlled environment with 12-hour light/dark cycle. Animals were anesthetized with pentobarbital sodium (50 mg/kg of body weight, i.p., Nembutal, Dinabbott, Japan) and placed in a stereotaxic apparatus. The skull was exposed and a hole was made on the parietal bone; 1.5 mm posterior and 0.8 mm lateral to the bregma. All procedures were performed under a surgery microscope to avoid excess irritation to the meninges and the underlying brain. A brass screw with a blunt tip (1.0 mm in diameter and 3.0 mm in length, Biomedica, Japan) was inset in the hole. The screw tip protruding intracranially was approximately 2.5 mm, which stuck into the parietal part of the right cerebrum through the meninges. In sham-operated rats, scalp was closed without attaching a screw to the hole. After surgery, all rats were kept in their original dens until sacrifice. Rats were allowed to feed chow and water ad libitum.
Under anesthesia the rat cerebral hemispheres of the target were processed for water content on post-TBI day 6 (n=6). The cerebral hemispheres dissected out were weighed, dried for 24 hours at 110 degree (Celsius) and then weighed again. The subtracted amount of the wet and dry weights was regarded as tissue water of the target, and utilized for the analysis of the cerebral edema.
The water content was calculated by using the following formula:
Water content (%) =[(wet weight of hemisphere—dry weight of hemisphere)/wet weight of hemisphere]×100
The test compounds were intravenously administered just after the operation via tail vein of the rats.

[4] = system: primary cultures (neurons) from cerebral cortices of fetal Wistar rats; experiment: Biological Test 4: neuroprotective inhibiting effect by calbindin antisense oligonucleotide (MTT); type: cell-based, rat; settings: 300 μM glutamic acid

Cc1c(C)c(OCC(=O)N(C)C2CCN(CC(=O)c3ccccc3)CC2)c(C)c(C)c1N [Compound 10, 2-(4-Amino-2,3,5,6-tetramethylphenoxy)-N-[1-(2-phenyl-2-oxoethyl)-4-piperidinyl]-N-methylacetamide]
Survival Rate (%) (Compound: 1 μl) [1]: 86%
Survival Rate (%) (Compound: 1 μl & MTA treatment) [2]: 31%

CCCCN1CCC(N(C)C(=O)C(C)Oc2c(C)c(C)c(N)c(C)c2C)CC1 (centres unmarked) [Compound 24, 2-(4-Amino-2,3,5,6-tetramethylphenoxy)-N-(1-butyl-4-piperidinyl)-N-methylpropanamide]
Survival Rate (%) (Compound: 1 μl) [1]: 61%
inhibition in vivo at 1 mg/kg [3]: 10.6%
Survival Rate (%) (Compound: 1 μl & MTA treatment) [2]: 22%

Cc1c(C)c(OCC(=O)N(C)C2CCN(CCOc3ccccc3)CC2)c(C)c(C)c1N [Compound 14, 2-(4-Amino-2,3,5,6-tetramethylphenoxy)-N-methyl-N-[1-(2-phenoxyethyl)-4-piperidinyl]acetamide]
inhibition in vivo at 1 mg/kg [3]: 18.7%

Cc1c(C)c(OCC(=O)N(C)C2CCN(Cc3ccc(C#N)cc3)CC2)c(C)c(C)c1N [Compound 18, 2-(4-Amino-2,3,5,6-tetramethylphenoxy)-N-[1-(4-cyano-benzyl)-4-piperidinyl]-N-methylacetamide]
Survival Rate (%) (Compound: 1 μl) [1]: 91%
inhibition in vivo at 1 mg/kg [3]: 22.1%
Survival Rate (%) (Compound: 1 μl & MTA treatment) [2]: 57%

CCCCN1CCC(N(C)C(=O)COc2c(C)c(C)c(N)c(C)c2C)CC1 [Compound 9, 2-(4-Amino-2,3,5,6-tetramethylphenoxy)-N-(1-butyl-4-piperidinyl)-N-methylacetamide]
Survival Rate (%) (Compound: 1 μl) [1]: 104%
Survival Rate (%) (Compound: 1 μl & MTA treatment) [2]: 5%

Cc1c(C)c(NCC(=O)N(C)C2CCN(c3nc4ccccc4s3)CC2)c(C)c(C)c1N [Compound 37, 2-(4-Amino-2,3,5,6-tetramethylanilino)-N-[1-(1,3-benzothiazol-2-yl)-4-piperidinyl]-N-methylacetamide]
Survival Rate (%) (Compound: 1 μl) [1]: 95%
Survival Rate (%) (Compound: 1 μl & MTA treatment) [2]: 20%

Cc1c(C)c(NCC(=O)N(C)C2CCN(c3ccc(F)cc3)CC2)c(C)c(C)c1N [Compound 38, 2-(4-Amino-2,3,5,6-tetramethylanilino)-N-[1-(4-fluorophenyl)-4-piperidinyl]-N-methylacetamide]
Survival Rate (%) (Compound: 1 μl) [1]: 124%
Survival Rate (%) [antisense (+): 5 μM] ([4]; 0.1 μM): 28%
Survival Rate (%) [antisense (−)] ([4]; 0.1 μM): 100%
Survival Rate (%) [antisense (+): 5 μM] ([4]; 1 μM): 33%
Survival Rate (%) [antisense (−)] ([4]; 1 μM): 106%
Survival Rate (%) (Compound: 1 μl & MTA treatment) [2]: 19%

Cc1c(C)c(OC(C)(C)C(=O)N(C)C2CCN(CCc3ccccc3)CC2)c(C)c(C)c1N [Compound 28, 2-(4-Amino-2,3,5,6-tetramethylphenoxy)-N,2-dimethyl-N-[1-(2-phenylethyl)-4-piperidinyl]propanamide]
Survival Rate (%) (Compound: 1 μl) [1]: 103%
Survival Rate (%) (Compound: 1 μl & MTA treatment) [2]: 46%

Cc1c(C)c(OCC(=O)N(C)C2CCN(C(C)Cc3ccccc3)CC2)c(C)c(C)c1N (centres unmarked) [Compound 22, 2-(4-Amino-2,3,5,6-tetramethylphenoxy)-N-methyl-N-[1-(1-methyl-2-phenylethyl)-4-piperidinyl]acetamide]
Survival Rate (%) (Compound: 1 μl) [1]: 79%
Survival Rate (%) (Compound: 1 μl & MTA treatment) [2]: 32%

Cc1c(C)c(OCC(=O)N(C)C2CCN(CCOCC(O)c3ccccc3)CC2)c(C)c(C)c1N (centres unmarked) [Compound 17, 2-(4-Amino-2,3,5,6-tetramethylphenoxy)-N-{1-[2-(2-hydroxy-2-phenylethoxy)ethyl]-4-piperidinyl}-N-methylacetamide]
Survival Rate (%) (Compound: 1 μl) [1]: 85%
Survival Rate (%) (Compound: 1 μl & MTA treatment) [2]: 55%

Cc1c(C)c(C)c(OCC(=O)N(C)C2CCN(CCc3ccccc3)CC2)c(N)c1C [Compound 29, 2-(2-Amino-3,4,5,6-tetramethylphenoxy)-N-methyl-N-[1-(2-phenylethyl)-4-piperidinyl]acetamide]
inhibition in vivo at 1 mg/kg [3]: 13.8%

Cc1c(C)c(OCC(=O)N(C)C2CCN(Cc3ccc(C(N)=O)cc3)CC2)c(C)c(C)c1N [Compound 19, 4-({4-[[(4-Amino-2,3,5,6-tetramethylphenoxy)acetyl]-(methyl)amino]-1-piperidinyl}methyl)bezamide]
Survival Rate (%) (Compound: 1 μl) [1]: 96%
Survival Rate (%) (Compound: 1 μl & MTA treatment) [2]: 28%

Cc1c(C)c(OCC(=O)N(C)C2CCN(CCN3CCOCC3)CC2)c(C)c(C)c1N [Compound 16, 2-(4-Amino-2,3,5,6-tetramethylphenoxy)-N-methyl-N-{1-[2-(4-morpholinyl)ethyl]-4-piperidinyl}acetamide]
Survival Rate (%) (Compound: 1 μl) [1]: 101%
Survival Rate (%) (Compound: 1 μl & MTA treatment) [2]: 33%

BFGF: Reference test substance in Table 10 (1 ng, 10 ng); not defined further; FGF is a physiologically active substance inducing CalbindinD-28k
Survival Rate (%) [antisense (+): 5 μM] ([4]; 1 ng): 8%
Survival Rate (%) [antisense (−)] ([4]; 1 ng): 71%
Survival Rate (%) [antisense (+): 5 μM] ([4]; 10 ng): 35%
Survival Rate (%) [antisense (−)] ([4]; 10 ng): 101%

Cc1c(C)c(OCC(=O)N(C)C2CCN(CC(=O)N(C)c3ccccc3)CC2)c(C)c(C)c1N [Compound 15, 2-(4-Amino-2,3,5,6-tetramethylphenoxy)-N-methyl-N-{1-[2-(N-methylanilino)-2-oxoethyl]-4-piperidinyl}acetamide]
inhibition in vivo at 1 mg/kg [3]: 14.7%

Cc1c(C)c(N)c(C)c(OCC(=O)N(C)C2CCN(C(=O)c3ccccc3)CC2)c1C [Compound 33, 2-(3-Amino-2,4,5,6-tetramethylphenoxy)N-(1-benzoyl-4-piperidinyl)-N-methylacetamide]
Survival Rate (%) (Compound: 1 μl) [1]: 120%
Survival Rate (%) (Compound: 1 μl & MTA treatment) [2]: 46%

Cc1c(C)c(N)c(C)c(OCC(=O)N(C)C2CCN(Cc3ccc(C#N)cc3)CC2)c1C [Compound 34, 2-(3-Amino-2,4,5,6-tetramethylphenoxy)-N-[1-(4-cyano-benzyl)-4-piperidinyl]-N-methylacetamide]
Survival Rate (%) (Compound: 1 μl) [1]: 74%
Survival Rate (%) (Compound: 1 μl & MTA treatment) [2]: 21%

Cc1c(C)c(OCC(=O)N(C)C2CCN(CC(=O)Nc3ccccc3)CC2)c(C)c(C)c1N [Compound 7, 2-(4-Amino-2,3,5,6-tetramethylphenoxy)-N-[1-(2-anilino-2-oxoethyl)-4-piperidinyl]-N-methylacetamide]
Survival Rate (%) (Compound: 1 μl) [1]: 76%
Survival Rate (%) (Compound: 1 μl & MTA treatment) [2]: 32%

Cc1cc(C)c(NCC(=O)N(C)C2CCN(c3ccc(F)cc3)CC2)c(C)c1N [Compound 39, 2-(3-Amino-2,4,6-trimethylanilino)-N-[1-(4-fluoro-phenyl)-4-piperidinyl]-N-methylacetamide]
Survival Rate (%) (Compound: 1 μl) [1]: 94%
Survival Rate (%) (Compound: 1 μl & MTA treatment) [2]: 28%

Cc1c(C)c(OC(C)C(=O)N(C)C2CCN(CC(=O)N(C)c3ccccc3)CC2)c(C)c(C)c1N (centres unmarked) [Compound 27, 2-(4-Amino-2,3,5,6-tetramethylphenoxy)-N-methyl-N-{1-[2-(N-methylanilino)-2-oxoethyl]-4-piperidinyl}propanamide]
inhibition in vivo at 3 mg/kg [3]: 11.8%

Cc1c(C)c(OC(C)C(=O)N(C)C2CCN(CC3CC3c3ccccc3)CC2)c(C)c(C)c1N (stereo not drawn) [Compound 26, 2-(4-Amino-2,3,5,6-tetramethylphenoxy)-N-methyl-N-[1-(trans-2-phenyl-1-cyclopropylmethyl)-4-piperidniyl]propanamide]
inhibition in vivo at 3 mg/kg [3]: 11.9%

Cc1c(C)c(OCC(=O)N(C)C2CCN(CC(O)c3ccccc3)CC2)c(C)c(C)c1N (centres unmarked) [Compound 11, 2-(4-Amino-2,3,5,6-tetramethylphenoxy)-N-[1-(2-hydroxy-2-phenylethyl)-4-piperidinyl]-N-methylacetamide]
Survival Rate (%) (Compound: 1 μl) [1]: 74%
Survival Rate (%) (Compound: 1 μl & MTA treatment) [2]: 56%
